Measurements taken from ChEMBL document CHEMBL3885861, “Open TG-GATES”.

Species on record: Rattus norvegicus
Assay: Open TG-GATES - Regimen: Daily Repeat
Format: toxicity, organism-based, Sprague-Dawley
Set-up: regimen Daily Repeat, gender Male, age 6 weeks
Settings: in vivo, iv, route intravenous injection; for KIDNEY_L / KIDNEY_R / KIDNEY_TOTAL: tissue Kidney; for LIVER: tissue Liver
[1] = 0 mg/kg, 72 h, dose level Control, time 3 day
[2] = 0 mg/kg, 72 h, tissue Blood, dose level Control, time 3 day
[3] = 0 mg/kg, 72 h, tissue Plasma, dose level Control, time 3 day
[4] = 0 mg/kg, […], dose level Control, time 7 day
[5] = 0 mg/kg, […], dose level Control, time 14 day
[6] = 0 mg/kg, […], dose level Control, time 28 day
[7] = 0 mg/kg, […], tissue Blood, dose level Control, time 7 day
[8] = 0 mg/kg, […], tissue Blood, dose level Control, time 14 day
[9] = 0 mg/kg, […], tissue Blood, dose level Control, time 28 day
[10] = 0 mg/kg, […], tissue Plasma, dose level Control, time 7 day
[11] = 0 mg/kg, […], tissue Plasma, dose level Control, time 14 day
[12] = 0 mg/kg, […], tissue Plasma, dose level Control, time 28 day
[13] = 1 mg/kg, 72 h, tissue Blood, dose level High, time 3 day
[14] = 1 mg/kg, 72 h, dose level High, time 3 day
[15] = 1 mg/kg, 72 h, tissue Plasma, dose level High, time 3 day
[16] = 1 mg/kg, […], dose level High, time 7 day
[17] = 1 mg/kg, […], dose level High, time 14 day
[18] = 1 mg/kg, […], dose level High, time 28 day
[19] = 1 mg/kg, […], tissue Blood, dose level High, time 7 day
[20] = 1 mg/kg, […], tissue Blood, dose level High, time 14 day
[21] = 1 mg/kg, […], tissue Blood, dose level High, time 28 day
[22] = 1 mg/kg, […], tissue Plasma, dose level High, time 7 day
[23] = 1 mg/kg, […], tissue Plasma, dose level High, time 14 day
[24] = 1 mg/kg, […], tissue Plasma, dose level High, time 28 day

## CISPLATIN
[1]
  TERMINAL_BW: 225.2 g
  KIDNEY_L: 1 g
  KIDNEY_R: 1 g
  KIDNEY_TOTAL: 1.9 g
[2]
  APTT: 23.7 s
  Bas: 0%
  Eos: 1%
  Fbg: 289.6 mg/dL
  Hb: 12.9 g/dL
  Ht: 39.8%
  Lym: 80.8%
  MCV: 63 fL
  Mono: 2.6%
  Plat: 132.8 x10_4/uL
  RBC: 631.8 x10_4/ul
  Ret: 5.8%
  WBC: 106.8 x10_2/uL
[3]
  ALP: 1659.4 IU/L
  ALT: 40.4 IU/L
  BUN: 16.2 mg/dL
  CRE: 0.2 mg/dL
  DBIL: 0 mg/dL
  GLC: 196.6 mg/dL
  IP: 6.7 mg/dL
  K: 4.2 meq/L
  LDH: 219.6 IU/L
  PL: 136 mg/dL
  RALB: 2.9 g/dL
  TBIL: 0.004 mg/dL
  TC: 69.4 mg/dL
  TG: 113.4 mg/dL
  TP: 5.4 g/dL
  gamma-GTP: 1.6 IU/L
[4]
  TERMINAL_BW: 261.4 g
  KIDNEY_L: 1.1 g
  KIDNEY_R: 1.1 g
  KIDNEY_TOTAL: 2.2 g
  LIVER: 12.3 g
[5]
  TERMINAL_BW: 291.7 g
  KIDNEY_L: 1.2 g
  KIDNEY_R: 1.2 g
  KIDNEY_TOTAL: 2.3 g
[6]
  TERMINAL_BW: 381.4 g
  KIDNEY_L: 1.3 g
  KIDNEY_R: 1.3 g
  KIDNEY_TOTAL: 2.7 g
  LIVER: 15.5 g
[7]
  APTT: 24.4 s
  Bas: 0%
  Eos: 1%
  Fbg: 309.2 mg/dL
  Ht: 40.3%
  Lym: 80%
  MCHC: 32.7%
  MCV: 63.8 fL
  Mono: 2.4%
  PT: 16.1 s
  Plat: 128.5 x10_4/uL
  RBC: 632.6 x10_4/ul
  Ret: 5.5%
  WBC: 155.9 x10_2/uL
[8]
  APTT: 23.9 s
  Bas: 0%
  Eos: 0.8%
  Fbg: 345.4 mg/dL
  Ht: 41.9%
  Lym: 80.8%
  MCHC: 33%
  MCV: 60.9 fL
  Mono: 2.8%
  PT: 15.9 s
  Plat: 117.5 x10_4/uL
  RBC: 688.8 x10_4/ul
  Ret: 3.8%
  WBC: 116.1 x10_2/uL
[9]
  APTT: 24.5 s
  Bas: 0%
  Eos: 1.2%
  Fbg: 311.4 mg/dL
  Hb: 14.6 g/dL
  Ht: 42.7%
  Lym: 81.4%
  MCHC: 34.1%
  MCV: 56.4 fL
  Mono: 3%
  PT: 16 s
  Plat: 104.7 x10_4/uL
  RBC: 757.6 x10_4/ul
  Ret: 2.2%
  WBC: 114.2 x10_2/uL
[10]
  ALP: 1680.4 IU/L
  ALT: 40.2 IU/L
  BUN: 17.6 mg/dL
  CRE: 0.2 mg/dL
  DBIL: 0 mg/dL
  IP: 7.2 mg/dL
  K: 4.3 meq/L
  LDH: 185.6 IU/L
  PL: 135.8 mg/dL
  RALB: 2.9 g/dL
  TBIL: 0.002 mg/dL
  TC: 69.2 mg/dL
  TG: 124.6 mg/dL
  TP: 5.4 g/dL
  gamma-GTP: 2.2 IU/L
[11]
  ALP: 1400.6 IU/L
  ALT: 41.2 IU/L
  AST: 81.4 IU/L
  BUN: 19 mg/dL
  CRE: 0.2 mg/dL
  DBIL: 0 mg/dL
  GLC: 182.2 mg/dL
  IP: 7.2 mg/dL
  K: 4.3 meq/L
  LDH: 164.4 IU/L
  PL: 146.8 mg/dL
  RALB: 3.1 g/dL
  TBIL: 0.002 mg/dL
  TC: 70.4 mg/dL
  TG: 117.6 mg/dL
  TP: 5.8 g/dL
  gamma-GTP: 1.8 IU/L
[12]
  ALP: 1048.2 IU/L
  ALT: 37.8 IU/L
  AST: 65.2 IU/L
  BUN: 19.2 mg/dL
  CRE: 0.2 mg/dL
  DBIL: 0 mg/dL
  GLC: 196.6 mg/dL
  IP: 6.4 mg/dL
  K: 4.2 meq/L
  LDH: 130.2 IU/L
  RALB: 3.1 g/dL
  TBIL: 0.004 mg/dL
  TC: 74.2 mg/dL
  TG: 141.8 mg/dL
  TP: 6 g/dL
  gamma-GTP: 2.8 IU/L
[13]
  APTT: 23.7 s
  Bas: 0%
  Eos: 1%
  Fbg: 288.4 mg/dL
  Ht: 40.9%
  Lym: 87%
  MCHC: 33%
  MCV: 61.4 fL
  Mono: 2.2%
  Neu: 9%
  PT: 15.7 s
  Plat: 137 x10_4/uL
  RBC: 667 x10_4/ul
  Ret: 2.5%
  WBC: 69.2 x10_2/uL
[14]
  KIDNEY_L: 0.9 g
  KIDNEY_R: 1 g
  KIDNEY_TOTAL: 1.9 g
  LIVER: 8.7 g
[15]
  ALP: 1528.2 IU/L
  AST: 75.8 IU/L
  CRE: 0.2 mg/dL
  Ca: 11 mg/dL
  DBIL: 0.002 mg/dL
  GLC: 180.8 mg/dL
  IP: 7.3 mg/dL
  K: 4.3 meq/L
  LDH: 270.4 IU/L
  PL: 132.6 mg/dL
  RALB: 3.1 g/dL
  TBIL: 0.026 mg/dL
  TG: 54.8 mg/dL
  TP: 5.6 g/dL
  gamma-GTP: 1.4 IU/L
[16]
  TERMINAL_BW: 219.4 g
  KIDNEY_L: 1 g
  KIDNEY_R: 1 g
  KIDNEY_TOTAL: 2 g
  LIVER: 10 g
[17]
  TERMINAL_BW: 226 g
  KIDNEY_L: 1.3 g
  KIDNEY_R: 1.3 g
  KIDNEY_TOTAL: 2.6 g
  LIVER: 8.8 g
[18]
  TERMINAL_BW: 172 g
  KIDNEY_L: 2.8 g
  KIDNEY_R: 2.8 g
  KIDNEY_TOTAL: 5.6 g
  LIVER: 6.8 g
[19]
  APTT: 27.5 s
  Bas: 0%
  Eos: 0.8%
  Fbg: 299.8 mg/dL
  Hb: 14.3 g/dL
  Ht: 42.4%
  Lym: 82.8%
  MCHC: 33.6%
  MCV: 59.8 fL
  Mono: 3.6%
  Neu: 11.4%
  PT: 16 s
  Plat: 136.4 x10_4/uL
  RBC: 708.8 x10_4/ul
  Ret: 1%
  WBC: 54.2 x10_2/uL
[20]
  APTT: 26.8 s
  Bas: 0%
  Eos: 0.4%
  Fbg: 276.4 mg/dL
  Hb: 14.9 g/dL
  Ht: 43.4%
  Lym: 80.8%
  MCHC: 34.3%
  MCV: 58.8 fL
  Mono: 4%
  Neu: 13.4%
  PT: 15.3 s
  Plat: 68.4 x10_4/uL
  RBC: 739 x10_4/ul
  Ret: 0.4%
  WBC: 50.8 x10_2/uL
[21]
  APTT: 17.9 s
  Bas: 0%
  Eos: 0%
  Fbg: 270 mg/dL
  Hb: 12.1 g/dL
  Ht: 33%
  Lym: 77%
  MCH: 18.5 pg
  MCHC: 36.7%
  MCV: 50.5 fL
  Mono: 3%
  Neu: 20%
  PT: 16.9 s
  Plat: 3.1 x10_4/uL
  RBC: 653 x10_4/ul
  Ret: 0.1%
  WBC: 32.4 x10_2/uL
[22]
  ALP: 1309.4 IU/L
  ALT: 31.2 IU/L
  AST: 79 IU/L
  BUN: 18.4 mg/dL
  CRE: 0.2 mg/dL
  DBIL: 0.002 mg/dL
  GLC: 170.8 mg/dL
  IP: 5.9 mg/dL
  K: 4.1 meq/L
  LDH: 247.4 IU/L
  PL: 118.8 mg/dL
  RALB: 3.2 g/dL
  TBIL: 0.02 mg/dL
  TC: 63.4 mg/dL
  TG: 64.2 mg/dL
  TP: 5.8 g/dL
  gamma-GTP: 1.6 IU/L
[23]
  ALP: 720.4 IU/L
  ALT: 37.6 IU/L
  AST: 102.8 IU/L
  BUN: 42.2 mg/dL
  CRE: 0.5 mg/dL
  DBIL: 0.002 mg/dL
  GLC: 165.8 mg/dL
  IP: 5.5 mg/dL
  K: 4.2 meq/L
  LDH: 248.4 IU/L
  PL: 134.8 mg/dL
  RALB: 3.1 g/dL
  TBIL: 0.006 mg/dL
  TC: 86 mg/dL
  TG: 43 mg/dL
  TP: 5.8 g/dL
  gamma-GTP: 3.8 IU/L
[24]
  ALP: 311 IU/L
  ALT: 47 IU/L
  AST: 125 IU/L
  BUN: 332 mg/dL
  CRE: 3.6 mg/dL
  Ca: 9.1 mg/dL
  Cl: 93 meq/L
  DBIL: 0.01 mg/dL
  GLC: 210 mg/dL
  IP: 11.7 mg/dL
  K: 5.4 meq/L
  LDH: 2660 IU/L
  Na: 129 meq/L
  PL: 140 mg/dL
  RALB: 2.3 g/dL
  TBIL: 0 mg/dL
  TC: 77 mg/dL
  TG: 91 mg/dL
  TP: 4.5 g/dL
  gamma-GTP: 2 IU/L
